Laboratory results published in patent US20130345205A1, “SUBSTITUTED BICYCLIC ARALKYL PYRAZOLE LACTAM ANALOGS AS ALLOSTERIC MODULATORS OF MGLUR5 RECEPTORS” (Vanderbilt University, priority 2012, published 2013).

Experiments:
[1] = molecular target: human mGluR5 (Homo sapiens, UniProt P41594); assay: Cell-based functional Ca2+ mobilization assay (FDSS), potentiation of glutamate EC20 response; conditions: H10H cell-line (HEK, recombinant human mGluR5); for Emax: glutamate EC20, maximum average response at a single concentration, percent of maximal glutamate response; for EC50: positive allosteric modulation in presence of glutamate EC20, concentration in mol/L
From the text: Human mGluR5a cDNA in pCMV6-XL6 mammalian expression plasmid was purchased from OriGene Technologies, Inc. (catalogue number SC326357) and subcloned into pcDNA3.1(−). Human embryonic kidney (HEK) 293A cells were then transfected with human mGluR5a pcDNA3.1(−) using LipofectAmine2000 (Invitrogen) and monoclones were selected and tested for functional response using a Ca^2+ mobilization assay. Monoclones were named for the species (“H” for human) plus the location on the plate (e.g. “10H”).
HEK cells transfected with the human mGluR5a receptor (H10H or H12H cell line) were plated at 15,000 cells/well in clear-bottomed poly-D-lysine-coated assay plates (BD Falcon) in glutamate-glutamine-free growth medium and incubated overnight at 37° C. and 5% CO2. Cell-lines used were either the H10H or H12H cell-lines expressing the human mGluR5 receptor. The following day, the growth medium was removed and the cells were washed with assay buffer containing 1× Hank's balanced salt solution (Invitrogen, Carlsbad, Calif.), 20 mM HEPES, 2.5 mM probenecid, pH 7.4 and left with 20 μL of this reagent. Following this step, the cells were loaded with calcium indicator dye, fluo-4 AM, to a final concentration of 2 μM and incubated for 40-45 min at 37° C. The dye solution was removed and replaced with assay buffer. Cell plates were held for 10-15 min at room temperature and were then loaded into the Functional Drug Screening System 6000 (FDSS 6000, Hamamatsu, Japan).
After establishment of a fluorescence baseline for about 3 seconds, the compounds of the present invention were added to the cells, and the response in cells was measured. 2.3 minutes later an EC20 concentration of the mGluR5 receptor agonist glutamate was added to the cells, and the response of the cells was measured for about 1.7 minutes. All test compounds were dissolved and diluted to a concentration of 10 mM in 100% DMSO and then serially diluted into assay buffer for a 2× stock solution in 0.6% DMSO; stock compounds were then added to the assay for a final DMSO concentration of 0.3% after the first addition to the assay well. Calcium fluorescence measures were recorded as fold over basal fluorescence; raw data was then normalized to the maximal response to glutamate. Potentiation of the agonist response of the mGluR5 receptor in the present invention was observed as an increase in response to submaximal concentrations of glutamate in the presence of compound compared to the response to glutamate in the absence of compound.
The concentration-response curves of compounds of the present invention, obtained in the presence of EC20 of mGluR5 receptor agonist glutamate to determine positive allosteric modulation, were generated using Microsoft Excel with IDBS XLFit add-ins. The raw data file containing all time points was used as the data source in the analysis template. This was saved by the FDSS as a tab-delimited text file. Data were normalized using a static ratio function (F/F0) for each measurement of the total 350 values per well divided by each well's initial value. Data was then reduced as to peak amplitudes (Max-Initial Min) using a time range that starts approximately 1 second after the glutamate EC20 addition and continues for approximately 40 seconds. This is sufficient time to capture the peak amplitude of the cellular Calcium response. Individual amplitudes were expressed as % EMax by multiplying each amplitude by 100 and then dividing the product by the mean of the amplitudes derived from the glutamate ECMax-treated wells. pEC50 values for test compounds were generated by fitting the normalized values versus the log of the test compound concentration (in mol/L) using a 4 parameter logistic equation where none of the parameters were fixed. Each of the three values collected at each concentration of test compound were weighted evenly. Individual values falling outside the 95% prediction limits of the curve fit were automatically excluded from the fit. […]

Chain of human mGluR5 (P41594 21-1180 isoform P41594-2 limits assumed): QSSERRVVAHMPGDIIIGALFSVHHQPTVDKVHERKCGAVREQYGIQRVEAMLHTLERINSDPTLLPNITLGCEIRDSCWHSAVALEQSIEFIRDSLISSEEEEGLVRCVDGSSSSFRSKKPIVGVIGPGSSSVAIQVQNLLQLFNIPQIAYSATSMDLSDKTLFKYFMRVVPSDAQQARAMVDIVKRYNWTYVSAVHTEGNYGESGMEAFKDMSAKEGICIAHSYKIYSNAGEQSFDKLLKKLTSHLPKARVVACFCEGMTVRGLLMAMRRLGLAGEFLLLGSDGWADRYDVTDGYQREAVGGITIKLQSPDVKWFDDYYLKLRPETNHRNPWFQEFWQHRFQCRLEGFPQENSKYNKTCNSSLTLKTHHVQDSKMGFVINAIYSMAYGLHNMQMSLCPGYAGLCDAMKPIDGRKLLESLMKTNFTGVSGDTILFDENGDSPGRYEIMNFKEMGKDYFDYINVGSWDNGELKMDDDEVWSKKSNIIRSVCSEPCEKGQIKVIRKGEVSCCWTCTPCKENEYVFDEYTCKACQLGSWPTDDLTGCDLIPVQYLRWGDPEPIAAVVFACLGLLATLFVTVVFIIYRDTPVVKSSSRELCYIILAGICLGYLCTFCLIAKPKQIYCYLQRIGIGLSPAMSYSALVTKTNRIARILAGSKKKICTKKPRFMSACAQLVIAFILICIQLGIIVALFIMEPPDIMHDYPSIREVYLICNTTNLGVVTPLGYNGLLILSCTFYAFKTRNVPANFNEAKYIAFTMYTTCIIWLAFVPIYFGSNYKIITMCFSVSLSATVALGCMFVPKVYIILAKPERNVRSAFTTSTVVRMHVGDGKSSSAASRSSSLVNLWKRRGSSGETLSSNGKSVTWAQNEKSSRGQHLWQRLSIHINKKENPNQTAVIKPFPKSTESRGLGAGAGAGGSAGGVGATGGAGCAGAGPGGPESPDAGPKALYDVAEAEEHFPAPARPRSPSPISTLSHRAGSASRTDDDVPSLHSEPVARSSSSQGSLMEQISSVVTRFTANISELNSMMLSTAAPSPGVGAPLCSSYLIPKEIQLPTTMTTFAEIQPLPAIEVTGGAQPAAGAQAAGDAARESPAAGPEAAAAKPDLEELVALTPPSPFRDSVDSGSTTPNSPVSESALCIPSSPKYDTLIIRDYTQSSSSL

| Emax [1] | EC50 [1] | melting point | SMILES |
| --- | --- | --- | --- |
| 68.5% | 55 nM | 132 °C | CC1CN([C@H](C)c2ccccc2)C(=O)c2cc(COc3ccccc3)nn21 (single isomer, unassigned) [Example B4, (7*S)-7-methyl-2-(phenoxymethyl)-5-[(1R)-1-phenylethyl]-6,7-dihydropyrazolo[1,5-a]pyrazin-4(5H)-one] |
| 69.5% | 60.3 nM | 97.7 °C | CC1CN(Cc2ccccc2)C(=O)c2cc(COc3ccccc3)nn21 (single isomer, unassigned) [Example B14] |
| 70% | 1740 nM | > 300 °C | Cc1nccc(CN2CCn3nc(COc4ccccc4)cc3C2=O)n1 [Example B84] |
| 66% | 2290 nM | 120.4 °C | Cc1cncc(CN2CCn3nc(COc4ccccc4)cc3C2=O)n1 [Example B77] |
| 65% | 155 nM | 169 °C | O=C1c2cc(COc3ccccc3)nn2CCN1Cc1ccc(Cl)cc1 [Example B48] |
| 71% | 1150 nM | 132.4 °C | COc1cccnc1CN1CCn2nc(COc3ccccc3)cc2C1=O [Example B75] |
| 63% | 1910 nM | 123.4 °C | O=C1c2cc(COc3ccccc3)nn2CCN1Cc1cccnc1 [Example B18] |
| 69% | 61.7 nM | 129.8 °C | O=C1c2cc(COc3ccccc3)nn2CCN1Cc1ccc(F)cc1F [Example B22] |
| 69.5% | 447 nM | 147.4 °C | Cc1cccc(CN2CCn3nc(COc4ccc(F)cc4)cc3C2=O)n1 [Example B85] |
| 68% | 1290 nM | 95 °C | COc1ccc(CN2CCn3nc(COc4ccccn4)cc3C2=O)cc1 [Example B101] |
| 72.5% | 31.6 nM | 122.8 °C | O=C1c2cc(COc3ccccc3)nn2CCN1Cc1cccc(F)c1F [Example B23] |
| 62% | 347 nM | 124.7 °C | O=C1c2cc(COc3ccccn3)nn2CCN1Cc1ccccc1 [Example B9, 5-benzyl-2-[(pyridin-2-yloxy)methyl]-6,7-dihydropyrazolo[1,5-a]pyrazin-4(5H)-one] |
| 65% | 47.9 nM | 95 °C | O=C1c2cc(COc3ccccc3)nn2CCN1Cc1cccc(F)c1 [Example B20] |
| 70% | 33.9 nM | 189.6 °C | Cc1ccccc1CN1CCn2nc(COc3ccccc3)cc2C1=O [Example B63] |
| 37% | > 10000 nM | 91.2 °C | COc1ccc(CN2CCn3nc(COc4cccc(C)n4)cc3C2=O)cc1 [Example B29] |
| 69% | 209 nM | 104.2 °C | O=C1c2cc(COc3ccccc3F)nn2CCN1Cc1ccccc1 [Example B69] |
| 39% | 759 nM | 75.4 °C | Cc1ccnc(OCc2cc3n(n2)CCN(Cc2ccccc2)C3=O)c1 [Example B62] |
| 70% | 295 nM | 114.2 °C | Cc1nc(CN2CCn3nc(COc4ccccc4)cc3C2=O)ccc1F [Example B78] |
| 68% | 77.6 nM | 133.2 °C | O=C1c2cc(COc3ccccc3)nn2CCN1Cc1ccc(F)c(F)c1 [Example B21] |

| Emax [1] | EC50 [1] | melting point | SMILES |
| --- | --- | --- | --- |
| 61% | 47.9 nM | 95.3 °C | Cc1cccc(CN2CCn3nc(COc4ccccc4)cc3C2=O)c1 [Example B64] |
| 67% | 1000 nM | 137.5 °C | Cc1ncccc1CN1CCn2nc(COc3ccccc3)cc2C1=O [Example B96] |
| 65% | 417 nM | 121.9 °C | Cc1nc(CN2CCn3nc(COc4ccccc4)cc3C2=O)cs1 [Example B97] |
| 68% | 91.2 nM | 97.7 °C | COc1cccc(CN2CCn3nc(COc4ccccc4)cc3C2=O)n1 [Example B1, 5-[(6-methoxypyridin-2-yl)methyl]-2-(phenoxymethyl)-6,7-dihydropyrazolo[1,5-a]pyrazin-4(5H)-one] |
| 77% | 417 nM | 117.2 °C | O=C1c2cc(COc3ccccc3)nn2CCN1Cc1ncccc1F [Example B83] |
| 73% | 525 nM | 96 °C | COc1cncc(CN2CCn3nc(COc4ccccc4)cc3C2=O)n1 [Example B71] |
| 65% | 107 nM | 82.5 °C | COc1cccc(CN2CCn3nc(COc4ccccc4)cc3C2=O)c1 [Example B36] |
| 69% | 550 nM | 126.5 °C | O=C1c2cc(COc3ccccc3)nn2CCN1Cc1ccc(F)cn1 [Example B5, 5-[(5-fluoropyridin-2-yl)methyl]-2-(phenoxymethyl)-6,7-dihydropyrazolo[1,5-a]pyrazin-4(5H)-one] |
| 65% | 282 nM | 145.4 °C | O=C1c2cc(COc3ccccc3)nn2CCN1Cc1nc2ccccc2o1 [Example B92] |
| 71% | 120 nM | 113.6 °C | O=C1c2cc(COc3ccccc3)nn2CCN1Cc1cc(F)ccc1F [Example B24] |
| 63% | 46.8 nM | 104.9 °C | O=C1c2cc(COc3cccc(F)c3)nn2CCN1Cc1ccccc1 [Example B11, 5-benzyl-2-[(3-fluorophenoxy)methyl]-6,7-dihydropyrazolo[1,5-a]pyrazin-4(5H)-one] |
| 68% | 302 nM | 113.4 °C | Cc1cccc(CN2CCn3nc(COc4ccccc4)cc3C2=O)n1 [Example B3, 5-[(6-methylpyridin-2-yl)methyl]-2-(phenoxymethyl)-6,7-dihydropyrazolo[1,5-a]pyrazin-4(5H)-one] |
| 68% | 195 nM | 87.6 °C | COc1cccc(F)c1CN1CCn2nc(COc3ccccc3)cc2C1=O [Example B67] |
| 75% | 26.3 nM | 111.2 °C | O=C1c2cc(COc3ccccc3)nn2CCN1Cc1ccccc1Cl [Example B46] |
| 61% | > 10000 nM | > 300 °C | COc1ccc(CN2CCn3nc(COc4cc(C)ccn4)cc3C2=O)cc1 [Example B30] |
| 66% | 955 nM | 187.5 °C | Cc1cc(CN2CCn3nc(COc4ccccc4)cc3C2=O)no1 [Example B89] |
| 66% | 178 nM | 112.6 °C | CC1(C)CN(Cc2ccccc2)C(=O)c2cc(COc3ccccc3)nn21 [Example B45] |
| 72% | > 10000 nM | > 300 °C | Cn1c(CN2CCn3nc(COc4ccccc4)cc3C2=O)nc2ccccc21 [Example B98] |
| 65% | 550 nM | > 300 °C | O=C1c2cc(COc3cccc(F)c3)nn2CCN1Cc1ncccc1F [Example B104] |
